Values quoted from earlier work, collected in article PMC7395068, “The evolution of strategies to minimise the risk of human drug-induced liver injury (DILI) in drug discovery and development” (Archives of Toxicology, 2020).
Read-outs that look alike come from different tables or passages of the source. Where a SMILES comes first, the peptide text is derived from it. [ ]: non-standard residue; d: D form. d(hArg(Et2)) = CCN=C(NCC)NCCCC[C@@H](N)C(=O)O; hArg(Et2) = CCN=C(NCC)NCCCC[C@H](N)C(=O)O; dPhe(4-Cl) = N[C@H](Cc1ccc(Cl)cc1)C(=O)O; d2Nal = N[C@H](Cc1ccc2ccccc2c1)C(=O)O; d3Pal = N[C@H](Cc1cccnc1)C(=O)O

Details: cited from earlier work
[1] = binary in vivo human DILI call, ref Chen 2016
[2] = human DILI, LTKB DILIrank category, ref Chen 2016

CC(C)c1cccc(C(C)C)c1OCOP(=O)(O)O [fospropofol]
DILI +VE (5-8), DILI -VE (-4) [1]: +VE | DILI severity category [2]: vLess-DILI-Concern

CN[C@@H]1CCc2[nH]c3ccc(C(N)=O)cc3c2C1 [frovatriptan]
DILI +VE (5-8), DILI -VE (-4) [1]: -VE | DILI severity category [2]: vNo-DILI-Concern

C[C@]12CC[C@@H]3c4ccc(O)cc4C[C@@H](CCCCCCCCC[S+]([O-])CCCC(F)(F)C(F)(F)F)[C@H]3[C@@H]1CC[C@@H]2O (stereo partly drawn) [fulvestrant]
DILI +VE (5-8), DILI -VE (-4) [1]: -VE | DILI severity category [2]: Ambiguous DILI-concern

CNC[C@H](O)[C@@H](O)[C@H](O)[C@H](O)CO.CNC[C@H](O)[C@@H](O)[C@H](O)[C@H](O)CO.O=C([O-])CN(CCN(CC(=O)[O-])CC(=O)O)CCN(CC(=O)O)C(COCc1ccccc1)C(=O)[O-].[Gd+3] (stereo not drawn) [gadobenate dimeglumine]
DILI +VE (5-8), DILI -VE (-4) (in vivo): -VE | DILI severity category (in vivo): vNo-DILI-Concern

CNC(=O)CN(CCN(CCN(CC(=O)[O-])CC(=O)NC)CC(=O)[O-])CC(=O)[O-].[Gd+3] [gadodiamide]
DILI +VE (5-8), DILI -VE (-4) (in vivo): -VE | DILI severity category (in vivo): Ambiguous DILI-concern

O=C([O-])CN(CCN(CC(=O)[O-])CC(COP(=O)([O-])OC1CCC(c2ccccc2)(c2ccccc2)CC1)N(CC(=O)[O-])CC(=O)[O-])CC(=O)[O-].[Gd+3].[Na+].[Na+].[Na+] (stereo not drawn) [gadofosveset trisodium]
DILI +VE (5-8), DILI -VE (-4) (in vivo): -VE | DILI severity category (in vivo): vNo-DILI-Concern

CNC[C@H](O)[C@@H](O)[C@H](O)[C@H](O)CO.CNC[C@H](O)[C@@H](O)[C@H](O)[C@H](O)CO.O=C([O-])CN(CCN(CC(=O)[O-])CC(=O)O)CCN(CC(=O)[O-])CC(=O)O.[Gd+3] [gadopentetate dimeglumine]
DILI +VE (5-8), DILI -VE (-4) (in vivo): -VE | DILI severity category (in vivo): vNo-DILI-Concern

CC(O)CN1CCN(CC(=O)[O-])CCN(CC(=O)[O-])CCN(CC(=O)[O-])CC1.[Gd+3] (stereo not drawn) [gadoteridol]
DILI +VE (5-8), DILI -VE (-4) (in vivo): -VE | DILI severity category (in vivo): vNo-DILI-Concern

COCCNC(=O)CN(CCN(CCN(CC(=O)[O-])CC(=O)NCCOC)CC(=O)[O-])CC(=O)[O-].[Gd+3] [gadoversetamide]
DILI +VE (5-8), DILI -VE (-4) (in vivo): -VE | DILI severity category (in vivo): vNo-DILI-Concern

O=[N+]([O-])[O-].O=[N+]([O-])[O-].O=[N+]([O-])[O-].[Ga+3] [gallium nitrate]
DILI +VE (5-8), DILI -VE (-4) [1]: -VE | DILI severity category [2]: Ambiguous DILI-concern

O=C(O)CCCO [gamma hydroxybutyric acid]
DILI +VE (5-8), DILI -VE (-4) [1]: -VE | DILI severity category [2]: vNo-DILI-Concern

CCN=C(NCC)NCCCC[C@H](NC(=O)[C@H](CC(C)C)NC(=O)[C@@H](CCCCNC(=NCC)NCC)NC(=O)[C@H](Cc1ccc(O)cc1)NC(=O)[C@H](CO)NC(=O)[C@@H](Cc1cccnc1)NC(=O)[C@@H](Cc1ccc(Cl)cc1)NC(=O)[C@@H](Cc1ccc2ccccc2c1)NC(C)=O)C(=O)N1CCC[C@H]1C(=O)N[C@H](C)C(N)=O [ganirelix acetate] (Ac-[d2Nal][dPhe(4-Cl)][d3Pal]SY[d(hArg(Et2))]L[hArg(Et2)]P[dA]-NH2)
DILI +VE (5-8), DILI -VE (-4) (in vivo): -VE | DILI severity category (in vivo): vNo-DILI-Concern

Nc1ccn([C@@H]2O[C@H](CO)[C@@H](O)C2(F)F)c(=O)n1 [gemcitabine]
DILI +VE (5-8), DILI -VE (-4) [1]: +VE | DILI severity category [2]: vMost-DILI-Concern

CC(C)C[C@H](NC(=O)[C@@H](COC(C)(C)C)NC(=O)[C@H](Cc1ccc(O)cc1)NC(=O)[C@H](CO)NC(=O)[C@H](Cc1c[nH]c2ccccc12)NC(=O)[C@H](Cc1cnc[nH]1)NC(=O)[C@@H]1CCC(=O)N1)C(=O)N[C@@H](CCCNC(=N)N)C(=O)N1CCC[C@H]1C(=O)NNC(N)=O [goserelin]
DILI +VE (5-8), DILI -VE (-4) [1]: -VE | DILI severity category [2]: Ambiguous DILI-concern

CN1C2CCCC1CC(NC(=O)c1nn(C)c3ccccc13)C2 (stereo not drawn) [granisetron]
DILI +VE (5-8), DILI -VE (-4) [1]: -VE | DILI severity category [2]: Ambiguous DILI-concern

N=C(N)NC(=O)Cc1c(Cl)cccc1Cl [guanfacine]
DILI +VE (5-8), DILI -VE (-4) [1]: -VE | DILI severity category [2]: Ambiguous DILI-concern

N=C(N)N [guanidine]
DILI +VE (5-8), DILI -VE (-4) (in vivo): -VE | DILI severity category (in vivo): Ambiguous DILI-concern

CCCCCCCCCC(=O)OC1(c2ccc(Cl)cc2)CCN(CCCC(=O)c2ccc(F)cc2)CC1 [haloperidol decanoate]
DILI +VE (5-8), DILI -VE (-4) [1]: -VE | DILI severity category [2]: Ambiguous DILI-concern

NCCc1cnc[nH]1.O=P(O)(O)O.O=P(O)(O)O [histamine diphosphate]
DILI +VE (5-8), DILI -VE (-4) (in vivo): -VE | DILI severity category (in vivo): vNo-DILI-Concern

CCNC(=O)[C@@H]1CCCN1C(=O)[C@H](CCCNC(=N)N)NC(=O)[C@H](CC(C)C)NC(=O)[C@@H](Cc1cn(Cc2ccccc2)cn1)NC(=O)[C@H](Cc1ccc(O)cc1)NC(=O)[C@H](CO)NC(=O)[C@H](Cc1c[nH]c2ccccc12)NC(=O)[C@H](Cc1cnc[nH]1)NC(=O)[C@@H]1CCC(=O)N1 [histrelin acetate]
DILI +VE (5-8), DILI -VE (-4) [1]: -VE | DILI severity category [2]: Ambiguous DILI-concern

C/C1=C2/[N-][C@H]([C@H](CC(N)=O)[C@@]2(C)CCC(=O)NC[C@@H](C)OP(=O)([O-])O[C@H]2[C@@H](O)[C@@H](n3cnc4cc(C)c(C)cc43)O[C@@H]2CO)[C@]2(C)N=C(/C(C)=C3N=C(/C=C4N=C1[C@@H](CCC(N)=O)C\4(C)C)[C@@H](CCC(N)=O)[C@]\3(C)CC(N)=O)[C@@H](CCC(N)=O)[C@]2(C)CC(N)=O.[Co+3].[OH-] [hydroxocobalamin]
DILI +VE (5-8), DILI -VE (-4) [1]: -VE | DILI severity category [2]: Ambiguous DILI-concern

CCN(CCO)CCCC(C)Nc1ccnc2cc(Cl)ccc12 (stereo not drawn) [hydroxychloroquine]
DILI +VE (5-8), DILI -VE (-4) [1]: +VE | DILI severity category [2]: vLess-DILI-Concern

CCCCCC(=O)O[C@]1(C(C)=O)CC[C@H]2[C@@H]3CCC4=CC(=O)CC[C@]4(C)[C@H]3CC[C@@]21C [hydroxyprogesterone caproate]
DILI +VE (5-8), DILI -VE (-4) [1]: -VE | DILI severity category [2]: Ambiguous DILI-concern

CCCCCN(C)CCC(O)(P(=O)(O)O)P(=O)(O)O [ibandronate]
DILI +VE (5-8), DILI -VE (-4) [1]: -VE | DILI severity category [2]: vNo-DILI-Concern

CCCCCCCN(CC)CCCC(O)c1ccc(NS(C)(=O)=O)cc1 (stereo not drawn) [ibutilide]
DILI +VE (5-8), DILI -VE (-4) (in vivo): -VE | DILI severity category (in vivo): vNo-DILI-Concern

COc1cc(C(C)=O)ccc1OCCCN1CCC(c2noc3cc(F)ccc23)CC1 [iloperidone]
DILI +VE (5-8), DILI -VE (-4) [1]: -VE | DILI severity category [2]: Ambiguous DILI-concern

CC1Cc2ccccc2N1NC(=O)c1ccc(Cl)c(S(N)(=O)=O)c1 (stereo not drawn) [indapamide]
DILI +VE (5-8), DILI -VE (-4) [1]: -VE | DILI severity category [2]: Ambiguous DILI-concern

CC1(C)C(/C=C/C=C/C=C/C=C2\N(CCCCS(=O)(=O)O)c3ccc4ccccc4c3C2(C)C)=[N+](CCCCS(=O)(=O)[O-])c2ccc3ccccc3c21 [indocyanine green]
DILI +VE (5-8), DILI -VE (-4) [1]: -VE | DILI severity category [2]: vNo-DILI-Concern

O=C(CCCCC(=O)Nc1c(I)cc(I)c(C(=O)O)c1I)Nc1c(I)cc(I)c(C(=O)O)c1I [iodipamide meglumine]
DILI +VE (5-8), DILI -VE (-4) [1]: -VE | DILI severity category [2]: vNo-DILI-Concern

CNC(=O)c1c(I)c(NC(C)=O)c(I)c(C(=O)O)c1I [iothalamate sodium]
DILI +VE (5-8), DILI -VE (-4) [1]: -VE | DILI severity category [2]: vNo-DILI-Concern

CCc1c2c(nc3ccc(OC(=O)N4CCC(N5CCCCC5)CC4)cc13)-c1cc3c(c(=O)n1C2)COC(=O)[C@]3(O)CC [irinotecan]
DILI +VE (5-8), DILI -VE (-4) (in vivo): +VE | DILI severity category (in vivo): vLess-DILI-Concern

CC(C)Nc1ncccn1 [isaxonine]
DILI +VE (5-8), DILI -VE (-4) [1]: +VE | DILI severity category [2]: vMost-DILI-Concern

O=[N+]([O-])O[C@@H]1CO[C@H]2[C@@H]1OC[C@@H]2O [isorbide mononitrate]
DILI +VE (5-8), DILI -VE (-4) (in vivo): -VE | DILI severity category (in vivo): Ambiguous DILI-concern

CC[C@H](C)[C@H]1O[C@]2(CC[C@@H]1C)C[C@@H]1C[C@@H](C/C=C(\C)[C@@H](O[C@H]3C[C@H](OC)[C@@H](O[C@H]4C[C@H](OC)[C@@H](O)[C@H](C)O4)[C@H](C)O3)[C@@H](C)/C=C/C=C3\CO[C@@H]4[C@H](O)C(C)=C[C@@H](C(=O)O1)[C@]34O)O2 [ivermectin]
DILI +VE (5-8), DILI -VE (-4) [1]: +VE | DILI severity category [2]: vLess-DILI-Concern

C/C(=C\c1csc(C)n1)[C@@H]1C[C@@H]2O[C@]2(C)CCC[C@H](C)[C@H](O)[C@@H](C)C(=O)C(C)(C)[C@@H](O)CC(=O)N1 [ixabepilone]
DILI +VE (5-8), DILI -VE (-4) [1]: -VE | DILI severity category [2]: Ambiguous DILI-concern

CNC1(c2ccccc2Cl)CCCCC1=O (stereo not drawn) [ketamine]
DILI +VE (5-8), DILI -VE (-4) [1]: +VE | DILI severity category [2]: vLess-DILI-Concern

C[N+](C)(C)C[C@H](O)CC(=O)[O-] [l-carnitine]
DILI +VE (5-8), DILI -VE (-4) [1]: -VE | DILI severity category [2]: vNo-DILI-Concern

N[C@@H](CS)C(=O)O [l-cysteine]
DILI +VE (5-8), DILI -VE (-4) (in vivo): -VE | DILI severity category (in vivo): Ambiguous DILI-concern

CSCC[C@H](N)C(=O)O [l-methionine]
DILI +VE (5-8), DILI -VE (-4) [1]: -VE | DILI severity category [2]: vNo-DILI-Concern

CC(C)[C@@H]1NC(=O)[C@H](CCCCN)NC(=O)[C@@H](Cc2c[nH]c3ccccc23)NC(=O)[C@H](Cc2ccc(O)cc2)NC(=O)[C@@H](NC(=O)[C@H](N)Cc2ccc3ccccc3c2)CSSC[C@@H](C(=O)N[C@H](C(N)=O)[C@@H](C)O)NC1=O [lanreotide acetate]
DILI +VE (5-8), DILI -VE (-4) [1]: -VE | DILI severity category [2]: Ambiguous DILI-concern

Cc1c(OCC(F)(F)F)ccnc1C[S+]([O-])c1nc2ccccc2[nH]1 (stereo not drawn) [lansoprazole]
DILI +VE (5-8), DILI -VE (-4) [1]: +VE | DILI severity category [2]: vLess-DILI-Concern

O=C([O-])[O-].O=C([O-])[O-].O=C([O-])[O-].[La+3].[La+3] [lanthanum carbonate]
DILI +VE (5-8), DILI -VE (-4) (in vivo): -VE | DILI severity category (in vivo): vNo-DILI-Concern

Nc1cccc2c1CN(C1CCC(=O)NC1=O)C2=O (stereo not drawn) [lenalidomide]
DILI +VE (5-8), DILI -VE (-4) [1]: +VE | DILI severity category [2]: vLess-DILI-Concern

N#Cc1ccc(C(c2ccc(C#N)cc2)n2cncn2)cc1 [letrozole]
DILI +VE (5-8), DILI -VE (-4) [1]: +VE | DILI severity category [2]: vLess-DILI-Concern

Nc1nc2c(c(=O)[nH]1)N(C=O)C(CNc1ccc(C(=O)N[C@@H](CCC(=O)O)C(=O)O)cc1)CN2 (stereo partly drawn) [leucovorin]
DILI +VE (5-8), DILI -VE (-4) [1]: -VE | DILI severity category [2]: vNo-DILI-Concern
